The results in this text go back to patent US11241422B2, “Methods for treatment of Fabry disease” (Amicus Therapeutics, Inc., priority 2006, dated 2022).

Assay [1] deals with T1, mutant α-GAL (Homo sapiens, UniProt P06280, T41I).
T1 construct: endogenous in cells; host or cells: T cell cultures established from blood of Fabry patients
T1 sequence (P06280 32-429 T41I): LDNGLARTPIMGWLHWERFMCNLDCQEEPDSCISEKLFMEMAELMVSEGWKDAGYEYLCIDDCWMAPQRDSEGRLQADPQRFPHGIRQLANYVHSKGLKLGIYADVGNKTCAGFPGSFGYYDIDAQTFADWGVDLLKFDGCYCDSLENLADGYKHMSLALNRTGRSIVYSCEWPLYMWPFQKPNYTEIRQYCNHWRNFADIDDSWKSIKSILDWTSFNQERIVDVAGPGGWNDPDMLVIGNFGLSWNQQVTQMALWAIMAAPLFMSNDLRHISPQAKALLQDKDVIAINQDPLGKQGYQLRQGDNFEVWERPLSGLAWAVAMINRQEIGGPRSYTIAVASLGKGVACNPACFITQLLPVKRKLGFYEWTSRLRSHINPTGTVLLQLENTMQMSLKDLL
Description: T cell-based α-GAL enhancement assay, T cells from Fabry patients cultured with DGJ. More on the design: key to Enhancement Group / Enhancement ratio: E: enhanceable;; I: enhanceable (intermediate);; NE: not enhanceable;. As to conditions: Fabry patient T cells, mutation T41I. The method, boiled down: (§1)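 T cells expanded from patient or normal blood white cells in RPMI 1640 with serum, about 25 ng/ml IL-2 and PHA at 37° C, 5% CO2. Cultures held between 5×10^5 and 1.5×10^6 cells/ml.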

Assay [2] concerns the target T2, mutant α-GAL (Homo sapiens, UniProt P06280, R301Q).
T2 construct: was put into a fresh tube and used as the source of α-GAL; endogenous in cells; host or cells: T cell cultures established from blood of Fabry patients
T2 sequence (P06280 32-429 R301Q): T1 sequence (P06280 32-429 T41I) with I10T, R270Q
Described as above. More on the design: key to Enhancement Group / Enhancement ratio: E: enhanceable;; I: enhanceable (intermediate);; NE: not enhanceable;. The method, boiled down:
as §1

The structures appear in SMILES notation. Where a chain is given by its changes, count along the chain named. Where “and” joins values, the source holds several entries; their conditions need not be identical. Equal values may be shown once.

As to `OC[C@H]1NC[C@H](O)[C@@H](O)[C@H]1O` [DGJ, 1-deoxygalactonojirimycin], the “Enhancement Group” value at mutant α-GAL [1] is recorded as “E”; at mutant α-GAL [2] (Fabry patient T cells, mutation R301Q), “E”. Besides, at mutant α-GAL [1] (20 μM DGJ), the “Activity (% Normal) (+DGJ)” value is 147 % Normal and 175 % Normal. In addition, the Enhancement ratio at mutant α-GAL [1] (+DGJ vs −DGJ) is 3.0 and 2.9; on mutant α-GAL [2] (Fabry patient T cells, mutation R301Q, +DGJ vs −DGJ) it was 12.3 and 9.1 and 12.1. For the same molecule, the “increase of activity in the presence of DGJ” value at mutant α-GAL [2] (R301Q mutation, T cells) amounted to 12 fold.
